We go through eight compounds from patent US10653715B2, “Methods and compositions for extending lifespan” (priority 2016, dated 2020).

Values joined by “and” are separate entries in the source; they are usually repeats but may differ in a detail not shown here. Equal entries are not always repeated.

This test relates to B6C3F1/J mice. As to the kind of experiment: Large-scale lifespan screen of compounds in long-lived B6C3F1 hybrid mice. Format: in vivo, mouse. As to conditions: for extension of maximal lifespan: maximal lifespan = average lifespan of the 20% longest-lived mice; for extension of mean lifespan: 15 per compound, dosed from 5 months of age throughout lifespan, relative to untreated controls. The source says: The majority of compounds included drugs currently used in medicine and drug-like molecules, with wide range of targets that span the entire pharmacological space.
The compounds were clustered into 62 drug classes based on their mechanism of action or cellular target. Screening a wide range of known compounds could potentially resolve two challenges. First, to analyze how distinct drug classes with common mechanisms of action affect aging in mammals. Second, to determine with no bias or predispositions which of the current pharmacological drugs can extend lifespan.
In this study, the inventors used a strain of long-lived B6C3F1 hybrid mice (C57BL/6J♀×C3H/HeJ♂) with well-characterized aging dynamics (Lipman 1999, Turturro, 1999). […] Each treatment group included 15 female mice per compound, while 335 females were used as controls. Three additional control groups included 60 female mice on dietary restriction (60% ad libitum), 60 female mice on a purified diet, and 60 male mice as gender control. Each compound treatment and diet intervention were administered to mice starting at 5 months of age, and continued throughout their lifespan. The primary endpoint was mouse mortality, from which we calculated mean lifespan, maximal lifespan, and the onset of morbidity for each experimental group. To calculate the statistical significance, the mean lifespan, maximal lifespan, and the onset of morbidity for each individual compound and drug class were compared to the lifespan distribution of untreated mice. […]

Setting [1] is: B6C3F1/J mice, compared to the lifespan distribution of untreated mice.
The mark [2] stands for this setting: female B6C3F1/J mice, dosed from 5 months of age, relative to controls.

Turning to `C[C@]12CC[C@@H]3c4ccc(O)cc4CC[C@H]3[C@@H]1CC[C@@H]2O` [17β-estradiol], the “effect on mean and/or maximal lifespan (in words)” value (“effect” for short) under setting [1] is on record as “significantly shortened”. For the same compound, the “reduction of mean lifespan” value under setting [2] is reported as 21%.

Consider `CCOC(=O)C(C)(C)Oc1ccc(Cl)cc1` [Clofibrate], for which the “extension of maximal lifespan” value under setting [2] was determined as 20.9% and the “extension of maximal lifespan” value (female B6C3F1/J mice, dosed from 5 months of age, relative to controls, listed as clofibrate) worked out at 21%.

With `CC(=O)[O-].CC(=O)[O-].[Mg+2]` [Magnesium Acetate], the “effect” value (mouse, in vivo) was “significantly extended”.

Regarding `[Cl-].[Cl-].[Mg+2]` [Magnesium Chloride], the “effect” value (mouse, in vivo) is given as “significantly extended”.

For `[Mg+2].[OH-].[OH-]` [Magnesium Hydroxide], the “effect” value (mouse, in vivo) was “significantly extended”.

As to `O=C(O)CN(CCN(CC(=O)O)CC(=O)O)CCN(CC(=O)O)CC(=O)O` [Pentetic acid, diethylene triamene pentaacetic acid], the “effect” value under setting [1] is given as “significantly extended”. Besides, the “extension of mean lifespan” value runs as follows: (female B6C3F1/J mice) 16.1%; (female B6C3F1/J mice, listed as pentetic acid) 16%.

With `C[C@@H]1O[C@@H](O[C@@H]2C=C3CC[C@@H]4[C@H](CC[C@]5(C)[C@@H](c6ccc(=O)oc6)CC[C@]45O)[C@@]3(C)CC2)[C@H](O)[C@H](O)[C@H]1O` [Proscillaridin A], the “effect” value under setting [1] was “significantly extended”. Further, the “extension of mean lifespan” value (female B6C3F1/J mice) was 16% and 16.4%. Also, the “extension of onset of morbidity” value under setting [2] was 40% and 39.9%.

For the compound Inulin, the “effect” value under setting [1] is “significantly extended”. Moreover, the “extension of mean lifespan” value (female B6C3F1/J mice) turned out to be 16%. Moreover, the “extension of maximal lifespan” value under setting [2] was determined as 18%.
